Test results reported in PubChem BioAssay (NCI).
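Five compound concentrations were applied to cells in 96-well plates for 48 hours; endpoints were derived by simple linear interpolation of the resulting dose-response curve. Abbreviation: GI50, concentration required for 50% inhibition of growth. TGI: total growth inhibition.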

Assays:
Assay in all cases: DTP human tumour cell line panel, 48 h; in the data active means GI50 below about 0.43 µM; inactive means the rest
786-0 renal = tested on: 786-0 renal
A498 renal = tested on: A498 renal
A549 NSCLC = tested on: A549 NSCLC
ACHN renal = tested on: ACHN renal
BT-549 breast = tested on: BT-549 breast
CAKI-1 renal = tested on: CAKI-1 renal
CCRF-CEM leukemia = tested on: CCRF-CEM leukemia
COLO 205 colon = tested on: COLO 205 colon
DU-145 prostate = tested on: DU-145 prostate
EKVX NSCLC = tested on: EKVX NSCLC
HCC-2998 colon = tested on: HCC-2998 colon
HCT-116 colon = tested on: HCT-116 colon
HCT-15 colon = tested on: HCT-15 colon
HL-60(TB) leukemia = tested on: HL-60(TB) leukemia
HOP-62 NSCLC = tested on: HOP-62 NSCLC
HOP-92 NSCLC = tested on: HOP-92 NSCLC
HS 578T breast = tested on: HS 578T breast
HT29 colon = tested on: HT29 colon
IGROV1 ovarian = tested on: IGROV1 ovarian
K-562 leukemia = tested on: K-562 leukemia
KM12 colon = tested on: KM12 colon
LOX IMVI melanoma = tested on: LOX IMVI melanoma
M14 melanoma = tested on: M14 melanoma
MALME-3M melanoma = tested on: MALME-3M melanoma
MCF7 breast = tested on: MCF7 breast
MDA-MB-231 breast = tested on: MDA-MB-231 breast
MDA-MB-435 = tested on: MDA-MB-435
MOLT-4 leukemia = tested on: MOLT-4 leukemia
NCI-H226 lung = tested on: NCI-H226 lung
NCI-H23 lung = tested on: NCI-H23 lung
NCI-H460 lung = tested on: NCI-H460 lung
NCI-H522 lung = tested on: NCI-H522 lung
NCI/ADR-RES ovarian = tested on: NCI/ADR-RES ovarian
OVCAR-3 ovarian = tested on: OVCAR-3 ovarian
OVCAR-4 ovarian = tested on: OVCAR-4 ovarian
OVCAR-5 ovarian = tested on: OVCAR-5 ovarian
OVCAR-8 ovarian = tested on: OVCAR-8 ovarian
PC-3 prostate = tested on: PC-3 prostate
RPMI-8226 leukemia = tested on: RPMI-8226 leukemia
RXF 393 renal = tested on: RXF 393 renal
SF-268 CNS = tested on: SF-268 CNS
SF-295 CNS = tested on: SF-295 CNS
SF-539 CNS = tested on: SF-539 CNS
SK-MEL-2 melanoma = tested on: SK-MEL-2 melanoma
SK-MEL-28 melanoma = tested on: SK-MEL-28 melanoma
SK-MEL-5 melanoma = tested on: SK-MEL-5 melanoma
SK-OV-3 ovarian = tested on: SK-OV-3 ovarian
SN12C renal = tested on: SN12C renal
SNB-19 CNS = tested on: SNB-19 CNS
SNB-75 CNS = tested on: SNB-75 CNS
SR leukemia = tested on: SR leukemia
SW-620 colon = tested on: SW-620 colon
T-47D breast = tested on: T-47D breast
TK-10 renal = tested on: TK-10 renal
U251 CNS = tested on: U251 CNS
UACC-62 melanoma = tested on: UACC-62 melanoma
UO-31 renal = tested on: UO-31 renal

CCN1C(=O)N(CC)C2C1NN=C1SC(c3ccccc3)=CC(=O)N12 (stereo not given)
> 20400 nM: TGI (OVCAR-8 ovarian)
> 28200 nM: TGI (HCC-2998 colon)
active: GI50 (BT-549 breast) 330 nM | GI50 (CAKI-1 renal) 357 nM | GI50 (HCT-116 colon) 388 nM | GI50 (HCT-15 colon) 313 nM | GI50 (HL-60(TB) leukemia) 308 nM | GI50 (HT29 colon) 338 nM | GI50 (K-562 leukemia) 258 nM | GI50 (KM12 colon) 344 nM | GI50 (M14 melanoma) 344 nM | GI50 (MCF7 breast) 277 nM | GI50 (MDA-MB-435) 42.9 nM | GI50 (NCI-H460 lung) 394 nM | GI50 (NCI-H522 lung) 228 nM | GI50 (NCI/ADR-RES ovarian) 385 nM | GI50 (OVCAR-3 ovarian) 320 nM | GI50 (RXF 393 renal) 198 nM | GI50 (SF-295 CNS) 389 nM | GI50 (SF-539 CNS) 375 nM | GI50 (SNB-75 CNS) 210 nM | GI50 (SR leukemia) 140 nM | GI50 (SW-620 colon) 349 nM | GI50 (T-47D breast) 286 nM | GI50 (UACC-62 melanoma) 343 nM
176 nM: TGI (MDA-MB-435)
> 24900 nM: TGI (SF-295 CNS)
2200 nM: TGI (COLO 205 colon)
41800 nM: TGI (SK-MEL-5 melanoma)
> 74900 nM: TGI (HCT-15 colon)
25100 nM: TGI (BT-549 breast)
3030 nM: TGI (SF-539 CNS)
> 56100 nM: TGI (SK-OV-3 ovarian)
inactive: GI50 (786-0 renal) 472 nM | GI50 (A498 renal) > 100000 nM | GI50 (A549 NSCLC) 1020 nM | GI50 (ACHN renal) 660 nM | GI50 (CCRF-CEM leukemia) 428 nM | GI50 (COLO 205 colon) 429 nM | GI50 (DU-145 prostate) 717 nM | GI50 (HCC-2998 colon) 1540 nM | GI50 (HOP-62 NSCLC) 532 nM | GI50 (HOP-92 NSCLC) > 36300 nM | GI50 (HS 578T breast) 489 nM | GI50 (IGROV1 ovarian) 1090 nM | GI50 (LOX IMVI melanoma) 562 nM | GI50 (MALME-3M melanoma) 492 nM | GI50 (MDA-MB-231 breast) 2450 nM | GI50 (MOLT-4 leukemia) 809 nM | GI50 (NCI-H226 lung) 561 nM | GI50 (NCI-H23 lung) 1220 nM | GI50 (OVCAR-4 ovarian) 15700 nM | GI50 (OVCAR-5 ovarian) 921 nM | GI50 (OVCAR-8 ovarian) 1470 nM | GI50 (PC-3 prostate) 515 nM | GI50 (RPMI-8226 leukemia) 580 nM | GI50 (SF-268 CNS) 3050 nM | GI50 (SK-MEL-2 melanoma) 481 nM | GI50 (SK-MEL-28 melanoma) 872 nM | GI50 (SK-MEL-5 melanoma) 493 nM | GI50 (SK-OV-3 ovarian) 545 nM | GI50 (SN12C renal) 596 nM | GI50 (SNB-19 CNS) 730 nM | GI50 (TK-10 renal) 53500 nM | GI50 (U251 CNS) 546 nM | GI50 (UO-31 renal) 605 nM
> 85600 nM: TGI (KM12 colon)
> 72000 nM: TGI (NCI-H226 lung)
> 54300 nM: TGI (RPMI-8226 leukemia)
1590 nM: TGI (OVCAR-3 ovarian)
> 36900 nM: TGI (NCI-H460 lung)
> 100000 nM: TGI (786-0 renal) | TGI (A498 renal) | TGI (A549 NSCLC) | TGI (ACHN renal) | TGI (CAKI-1 renal) | TGI (CCRF-CEM leukemia) | TGI (DU-145 prostate) | TGI (EKVX NSCLC) | TGI (HCT-116 colon) | TGI (HOP-62 NSCLC) | TGI (HOP-92 NSCLC) | TGI (HS 578T breast) | TGI (IGROV1 ovarian) | TGI (K-562 leukemia) | TGI (LOX IMVI melanoma) | TGI (M14 melanoma) | TGI (MALME-3M melanoma) | TGI (MCF7 breast) | TGI (MDA-MB-231 breast) | TGI (MOLT-4 leukemia) | TGI (NCI-H23 lung) | TGI (NCI/ADR-RES ovarian) | TGI (OVCAR-4 ovarian) | TGI (OVCAR-5 ovarian) | TGI (PC-3 prostate) | TGI (SF-268 CNS) | TGI (SK-MEL-2 melanoma) | TGI (SK-MEL-28 melanoma) | TGI (SN12C renal) | TGI (SNB-19 CNS) | TGI (SR leukemia) | TGI (SW-620 colon) | TGI (T-47D breast) | TGI (TK-10 renal) | TGI (U251 CNS) | TGI (UACC-62 melanoma) | TGI (UO-31 renal)
538 nM: TGI (RXF 393 renal)
772 nM: TGI (NCI-H522 lung)
